By IC50 is commonly meant the concentration that gives 50% inhibition. A higher IC50 goes with a need for much substance.

This is an account of results in ChEMBL document CHEMBL1128057, “Aryl-fused sphingolipids as novel PKC inhibitors with topical antiinflammatory activity” (Bioorg Med Chem Lett, 1995).

The target of assay [1] is Protein kinase C (PKC). As to the kind of experiment: Inhibitory concentration required against Protein kinase C (isolated from rat brain) in PKC assay performed with 4 ug phosphatidyl serine:diacylglycerol (2:1).
In assay [2] the target is Protein kinase C (PKC). As to the kind of experiment: Inhibition of Protein kinase C of rat brain using phosphatidyl serine: di-acyl glycerol (2:1).
The species entered for assay [3] is Mus musculus. Kind of assay: Anti-inflammatory activity on the mice ears using antiinflammatory assay (TPAEE). It is filed as functional.

As to `CCCCCCCCCCCCCCCCc1cccc([C@@H](O)[C@@H](N)CO)n1`, in assay [1], the IC50 was found to be 4.5 µM. In the case of `CCCCCCCCCCC#Cc1ccc([C@@H](O)[C@@H](N)CO)s1`, the half-inhibitory concentration (IC50) stood at 26.2 µM in assay [2] and 2.9 µM in assay [1]. The compound also yielded an ED50 in assay [3] of 0.24 mg ear-1.

For `CCCCCCCCCCCOc1cccc([C@@H](O)[C@@H](N)CO)c1`, in assay [2], the IC50 is 24.1 µM. This lies in the double-digit micromolar range. For the compound `CCCCCCCCCCC#Cc1csc([C@@H](O)[C@@H](N)CO)c1`, the IC50 in assay [2] is 23.7 µM; in assay [1], 10.8 µM. In assay [3], this compound showed an ED50 of 0.23 mg ear-1.

`CCCCCCCCCCCC#Cc1ccc([C@@H](O)[C@@H](N)CO)s1` registered an IC50 in assay [1] of 3.5 µM. This lies in the single-digit micromolar range. As for `CCCCCCCCCCC#Cc1csc([C@@H](O)[C@@H](N)CO)n1`, the IC50 in assay [2] is 15.2 µM.

The compound `CCCCCCCCCCCCc1ccc([C@@H](O)[C@@H](N)CO)s1` returned an IC50 in assay [1] of 14 µM.

`CCCCCCCCCCCC(=O)c1cccc([C@@H](O)[C@@H](N)CO)c1` had an IC50 in assay [2] of 20.7 µM. Regarding `CCCCCCCCCCCC(=O)c1csc([C@@H](O)[C@@H](N)CO)c1`, the 50% inhibitory concentration (IC50) in assay [2] turned out to be 22.4 µM. Compound `CCCCCCCCCCCCc1cccc([C@@H](O)[C@@H](N)CO)n1` gave an IC50 in assay [1] of 10.9 µM.

In the case of `N[C@@H](CO)[C@H](O)c1ccc(C#CCCCCc2ccccc2)s1`, in assay [1], the half-inhibitory concentration (IC50) came to 36 µM. Same read-out and setting: in the case of `CCCCCCCC#Cc1ccc([C@@H](O)[C@@H](N)CO)s1` it was 19.9 µM. `CCCCCCCCCC#Cc1cccc([C@@H](O)[C@@H](N)CO)c1` came in with a concentration for half-maximal inhibition (IC50) in assay [1] of 9.7 µM. This IC50 lies about 2.1-fold lower than the previous one. `CCCCCCCCC#Cc1cccc([C@@H](O)[C@@H](N)CO)n1` gave an IC50 in assay [1] of 13.3 µM. The IC50 values of the last two compounds are within 1.5-fold of each other. The same measure, in the same setting: to `N[C@@H](CO)[C@H](O)c1cccc(C#CCCCCCc2ccccc2)n1` belongs 15.9 µM.

`CCCCCCCCCCC#Cc1cccc([C@@H](O)[C@@H](N)CO)c1`: the IC50 came out at 22.2 µM in assay [2] and 2.7 µM in assay [1]. In addition, the ED50 in assay [3] is on record as 0.34 mg ear-1. In assay [1], `CCCCCCCCCCc1cccc([C@@H](O)[C@@H](N)CO)n1` showed an IC50 of 30.5 µM.

In assay [1], `CCCCCCCCc1cccc([C@@H](O)[C@@H](N)CO)n1` yielded an IC50 above 100 µM.

With `CCCCCCCCCCCc1cccc([C@@H](O)[C@@H](N)CO)n1`, in assay [1], the concentration for half-maximal inhibition (IC50) is 10 µM.

Regarding `CCCCCCCCCCc1cc([C@@H](O)[C@@H](N)CO)on1`, the half-inhibitory concentration (IC50) in assay [1] came to 43.9 µM. This IC50 lies about 4.4-fold higher than the previous one. `CCCCCCCCCCC#Cc1cc([C@@H](O)[C@@H](N)CO)cs1` displayed an IC50 in assay [2] of 34.5 µM. That is a double-digit micromolar value. The compound `CCCCCCCCCC/C=C/c1csc([C@@H](O)[C@@H](N)CO)c1` came in with an IC50 in assay [1] of 5 µM. This lies in the single-digit micromolar range. Still for that read-out and setting: in the case of `CCCCCCCCCc1ccc([C@@H](O)[C@@H](N)CO)s1` it was 10 µM. Compound `CCCCCCCCCCCC(=O)c1ccc([C@@H](O)[C@@H](N)CO)s1` had a half-inhibitory concentration (IC50) in assay [2] of 22.4 µM. Turning to `CCCCCCCCCCCCC/C=C/[C@@H](O)[C@@H](N)CO` [SPHINGOSINE], the IC50 in assay [2] came out at 23.4 µM; in assay [1], 6.7 µM. The ED50 in assay [3] is reported as 0.31 mg ear-1.

Regarding `CCCCCCCCCC#Cc1ccc([C@@H](O)[C@@H](N)CO)s1`, in assay [1], the IC50 was 4.7 µM. In other words, the single-digit micromolar range. Still for that read-out and setting: in the case of `CCCCCCCCCCCCc1cc([C@@H](O)[C@@H](N)CO)on1` it was 9.1 µM. With `CCCCCCCCCCCCc1cccc([C@@H](O)[C@@H](N)CO)c1`, the figures for the IC50 in assay [2] and in assay [1] were 17.3 µM and 3.7 µM, respectively.

Compound `CCCCCCCCCC#Cc1cccc([C@@H](O)[C@@H](N)CO)n1` displayed a 50% inhibitory concentration (IC50) in assay [1] of 10 µM.

For the compound `CCCCCCCCCCCCc1csc([C@@H](O)[C@@H](N)CO)c1`, the half-inhibitory concentration (IC50) in assay [2] was determined as 13.3 µM.
